Results on 23 molecules are retold here after patent publication US8217029B2, “Oxazolidinone antibiotics” (Actelion Pharmaceuticals Ltd, priority 2007, dated 2012).

Values after ≈ are worked out from the molar mass of the structure shown.

The assay relates to S aureus A798. As to the kind of experiment: Minimal inhibitory concentration (MIC), microdilution method in cation-adjusted Mueller-Hinton Broth following NCCLS guidelines. Type of assay: cell-based. The following applies: pH of test medium 7.2-7.3. The gist of the method: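 MICs (mg/l) came from NCCLS-guided microdilution, using cation-adjusted Mueller-Hinton medium adjusted to pH 7.2-7.3.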
Background: Dilution methods test growth across graded concentrations, often in twofold steps.

For orientation: MIC means the smallest concentration in the dilution series that meets the test's criterion for growth inhibition. High values mean a need for much substance, low ones inhibition by little substance. As to `COc1ccc2ncc(F)c(N3CC[C@H](NC[C@H]4CN(c5ccc6c(c5)NC(=O)CS6)C(=O)O4)C3)c2n1` [Example 164, 6-((S)-5-{[(S)-1-(3-Fluoro-6-methoxy-[1,5]naphthyridin-4-yl)-pyrrolidin-3-ylamino]methyl}-2-oxo-oxazolidin-3-yl)-4H-benzo[1,4]thiazin-3-one], the MIC was ≤ 0.031 µg/mL. As for `COc1ccc2nccc(N3CCC(NC[C@H]4CN(c5ccc6c(c5)NC(=O)CS6)C(=O)O4)CC3)c2n1` [Example 165, 6-((S)-5-{[1-(6-Methoxy-[1,5]naphthyridin-4-yl)-piperidin-4-ylamino]-methyl}-2-oxo-oxazolidin-3-yl)-4H-benzo[1,4]thiazin-3-one], the figure is ≤ 0.031 µg/mL; as for `COc1ccc2nccc(N3CCCN(C[C@H]4CN(c5ccc6c(c5)NC(=O)CS6)C(=O)O4)CC3)c2n1` [Example 166, 6-{(S)-5-[4-(6-Methoxy-[1,5]naphthyridin-4-yl)-[1,4]diazepan-1-ylmethyl]-2-oxo-oxazolidin-3-yl}-4H-benzo[1,4]thiazin-3-one], ≤ 0.031 µg/mL; as for `COc1ccc2nccc(N3CC[C@H](CNC[C@@H]4CN(c5ccc6c(c5)NC(=O)CO6)C(=O)O4)C3)c2n1` [Example 167, 6-[(R)-5-({[(R)-1-(6-Methoxy-[1,5]naphthyridin-4-yl)-pyrrolidin-3-ylmethyl]amino}-methyl)-2-oxo-oxazolidin-3-yl]-4H-benzo[1,4]oxazin-3-one], ≤ 0.031 µg/mL. As for `COc1ccc2nccc(N3CC[C@@H](CNC[C@@H]4CN(c5ccc6c(c5)NC(=O)CO6)C(=O)O4)C3)c2n1` [Example 168, 6-[(R)-5-({[(S)-1-(6-Methoxy-[1,5]naphthyridin-4-yl)-pyrrolidin-3-ylmethyl]-amino}-methyl)-2-oxo-oxazolidin-3-yl]-4H-benzo[1,4]oxazin-3-one], the figure is ≤ 0.031 µg/mL. Regarding `COc1ccc(N2C[C@@H](CN[C@H]3CCN(c4c(F)cnc5ccc(OC)nc45)C3)OC2=O)cc1` [Example 169, (R)-5-{[(S)-1-(3-Fluoro-6-methoxy-[1,5]naphthyridin-4-yl)-pyrrolidin-3-ylamino]-methyl}-3-(4-methoxy-phenyl)-oxazolidin-2-one], the lowest concentration to inhibit growth (MIC) was 0.5 µg/mL (≈ 1.07 µM).

`CCOc1ccc(N2C[C@@H](CN[C@H]3CCN(c4c(F)cnc5ccc(OC)nc45)C3)OC2=O)cc1` [Example 170, (R)-3-(4-Ethoxy-phenyl)-5-{[(S)-1-(3-fluoro-6-methoxy-[1,5]naphthyridin-4-yl)-pyrrolidin-3-ylamino]-methyl}-oxazolidin-2-one] displayed an MIC of 0.25 µg/mL (≈ 0.519 µM).

`COc1ccc2ncc(F)c(N3CC[C@H](NC[C@@H]4CN(c5ccc(OC(F)F)cc5)C(=O)O4)C3)c2n1` [Example 171, (R)-3-(4-Difluoromethoxy-phenyl)-5-{[(S)-1-(3-fluoro-6-methoxy-[1,5]naphthyridin-4-yl)-pyrrolidin-3-ylamino]-methyl}-oxazolidin-2-one] gave an MIC of 0.063 µg/mL (≈ 0.125 µM). As for `COc1ccc2nccc(N3CC[C@H](NC[C@@H]4CN(c5ccc6c(c5)NC(=O)CS6)C(=O)O4)C3)c2c1` [Example 172, 6-((R)-5-{[(S)-1-(6-Methoxy-quinolin-4-yl)-pyrrolidin-3-ylamino]-methyl}-2-oxo-oxazolidin-3-yl)-4H-benzo[1,4]thiazin-3-one], the minimal inhibitory concentration (MIC) was ≤ 0.031 µg/mL. As to `COc1ccc2nccc(N3CC[C@@H](CNC[C@@H]4CN(c5ccc6c(c5)NC(=O)CS6)C(=O)O4)C3)c2c1` [Example 173, 6-[(R)-5-({[(S)-1-(6-Methoxy-quinolin-4-yl)-pyrrolidin-3-ylmethyl]-amino}-methyl)-2-oxo-oxazolidin-3-yl]-4H-benzo[1,4]thiazin-3-one], the MIC is ≤ 0.031 µg/mL. As for `COc1ccc(N2C[C@@H](CNC3CN(c4ccnc5ccc(OC)nc45)C3)OC2=O)cc1` [Example 174, (R)-5-{[1-(6-Methoxy-[1,5]naphthyridin-4-yl)-azetidin-3-ylamino]-methyl}-3-(4-methoxy-phenyl)-oxazolidin-2-one], the figure is ≤ 0.031 µg/mL; as for `CCOc1ccc(N2C[C@@H](CNC3CN(c4ccnc5ccc(OC)nc45)C3)OC2=O)cc1` [Example 175, (R)-3-(4-Ethoxy-phenyl)-5-{[1-(6-methoxy-[1,5]naphthyridin-4-yl)-azetidin-3-ylamino]-methyl}-oxazolidin-2-one], ≤ 0.031 µg/mL; as for `COc1ccc2nccc(N3CC(NC[C@@H]4CN(c5ccc(OC(F)F)cc5)C(=O)O4)C3)c2n1` [Example 176, (R)-3-(4-Difluoromethoxy-phenyl)-5-{[1-(6-methoxy-[1,5]naphthyridin-4-yl)-azetidin-3-ylamino]-methyl}-oxazolidin-2-one], ≤ 0.031 µg/mL. As for `O=C1CSc2ccc(N3C[C@@H](CN[C@@H]4CCN(c5ccnc6ccc(F)cc56)C4)OC3=O)cc2N1` [Example 177, 6-((R)-5-{[(R)-1-(6-Fluoro-quinolin-4-yl)-pyrrolidin-3-ylamino]-methyl}-2-oxo-oxazolidin-3-yl)-4H-benzo[1,4]thiazin-3-one], the figure is 0.125 µg/mL (≈ 0.253 µM). With `N#Cc1ccc2nccc(N3CC[C@@H](NC[C@@H]4CN(c5ccc6c(c5)NC(=O)CS6)C(=O)O4)C3)c2c1` [Example 178, 4-((R)-3-{[(R)-2-oxo-3-(3-oxo-3,4-dihydro-2H-benzo[1,4]thiazin-6-yl)-oxazolidin-5-ylmethyl]-amino}-pyrrolidin-1-yl)-quinoline-6-carbonitrile] the figure was 0.063 µg/mL (≈ 0.126 µM); with `O=C1CSc2ccc(N3C[C@@H](CNC4CCN(c5ccnc6ccc(F)cc56)CC4)OC3=O)cc2N1` [Example 179, 6-((R)-5-{[1-(6-Fluoro-quinolin-4-yl)-piperidin-4-ylamino]-methyl}-2-oxo-oxazolidin-3-yl)-4H-benzo[1,4]thiazin-3-one], ≤ 0.031 µg/mL; with `N#Cc1ccc2nccc(N3CCC(NC[C@@H]4CN(c5ccc6c(c5)NC(=O)CS6)C(=O)O4)CC3)c2c1` [Example 180, 4-(4-{[(R)-2-oxo-3-(3-oxo-3,4-dihydro-2H-benzo[1,4]thiazin-6-yl)-oxazolidin-5-ylmethyl]-amino}-piperidin-1-yl)-quinoline-6-carbonitrile], ≤ 0.031 µg/mL.

For `COc1ccc2nccc(N3C[C@H](NC[C@@H]4CN(c5ccc6c(c5)NC(=O)CO6)C(=O)O4)[C@@H](OC)C3)c2n1` [Example 181, 6-((R)-5-{[(3S,4S)-4-Methoxy-1-(6-methoxy-[1,5]naphthyridin-4-yl)-pyrrolidin-3-ylamino]-methyl}-2-oxo-oxazolidin-3-yl)-4H-benzo[1,4]oxazin-3-one], the MIC came out at 0.25 µg/mL (≈ 0.48 µM).

With `COc1ccc2nccc(N3C[C@H](NC[C@@H]4CN(c5ccc6c(c5)NC(=O)CS6)C(=O)O4)[C@@H](OC)C3)c2n1` [Example 182, 6-((R)-5-{[(3S,4S)-4-Methoxy-1-(6-methoxy-[1,5]naphthyridin-4-yl)-pyrrolidin-3-ylamino]-methyl}-2-oxo-oxazolidin-3-yl)-4H-benzo[1,4]thiazin-3-one], the MIC is ≤ 0.031 µg/mL. As for `COc1ccc(N2C[C@@H](CNC3CCN(c4ccnc5ccc(OC)nc45)CC3)OC2=O)cc1` [Example 183, (R)-5-{[1-(6-Methoxy-[1,5]naphthyridin-4-yl)-piperidin-4-ylamino]-methyl}-3-(4-methoxy-phenyl)-oxazolidin-2-one], the figure is 0.25 µg/mL (≈ 0.539 µM); as for `CCOc1ccc(N2C[C@@H](CNC3CCN(c4ccnc5ccc(OC)nc45)CC3)OC2=O)cc1` [Example 184, (R)-3-(4-Ethoxy-phenyl)-5-{[1-(6-methoxy-[1,5]naphthyridin-4-yl)-piperidin-4-ylamino]-methyl}-oxazolidin-2-one], 0.5 µg/mL (≈ 1.05 µM).

`COc1ccc2nccc(N3CCC(NC[C@@H]4CN(c5ccc(OC(F)F)cc5)C(=O)O4)CC3)c2n1` [Example 185, (R)-3-(4-Difluoromethoxy-phenyl)-5-{[1-(6-methoxy-[1,5]naphthyridin-4-yl)-piperidin-4-ylamino]-methyl}-oxazolidin-2-one] registered a minimum inhibitory concentration (MIC) of 0.5 µg/mL (≈ 1 µM). As for `COc1ccc2nccc(N3CC(CNC[C@@H]4CN(c5ccc6c(c5)NC(=O)CS6)C(=O)O4)C3)c2c1` [Example 186, 6-[(R)-5-({[1-(6-Methoxy-quinolin-4-yl)-azetidin-3-ylmethyl]-amino}-methyl)-2-oxo-oxazolidin-3-yl]-4H-benzo[1,4]thiazin-3-one], the figure is ≤ 0.031 µg/mL.
